Entries after “also recorded” stand apart in the source; their conditions may differ.
Legend:
[1] = system: RPL (recurrent pregnancy loss) patient; conditions: cited from earlier work; for Outcome of earlier treatment: low-dose aspirin, heparin, prednisolone 5 mg/day, large-quantity γ-globulin 1 g/kg for 3 days, given in this order
[2] = system: patient suffering from a blood type incompatible pregnancy with negative maternal Rho (D) and positive fetal Rho (D); assay: Anti-D antibody titer by indirect Coombs test, Example 1 patient; type: in vivo, human; conditions: for Anti-D antibody titer: maternal blood, tacrolimus 4 mg/day oral
Method: Measurement of Anti-D Antibody Titer
The measurement is carried out by the indirect Coombs test. The indirect Coombs test is a test in which an anti-immunoglobulin antibody is added to a mixture of the blood serum of a patient and the blood of a healthy person to examine whether a hemagglutination reaction occurs (any irregular antibody present in the blood serum is detected) (for the Coombs test, see Nissan Women's Journal Vol. 59, No. 10, N-617-N-623).
(§1) The patient is a person having blood type A. The patient suffering from a blood type incompatible pregnancy with negative maternal Rho (D) and positive fetal Rho (D) was subjected to the following treatments. That is, at the time of the first pregnancy, anti-D immunoglobulin was not administered during pregnancy, sensitization was effected before delivery, and the anti-D antibody titer at the time of delivery was 8-fold. In week 39, they gave birth by emergency cesarean section due to placental abruption of the upper placenta.
(§2) The anti-D antibody titer obtained immediately after the establishment of pregnancy was 4-fold; however, the titer reached 16-fold in week 24 and reached 32-fold in week 26 (FIG. 6, upper part). After that, migration of fetal antigens to the mother's body via the placenta was assumed to further increase, and preparation of plasmapheresis and fetal blood transfusion was initiated in preparation for a rapid increase in the antibody titer.
(§3) Furthermore, the blood flow velocity in the middle cerebral artery and the estimated body weight of the fetus were measured by fetal ultrasonography.

[3] = system: patient suffering from a blood type incompatible pregnancy with negative maternal Rho (D) and positive fetal Rho (D); assay: Pregnancy course and fetal/neonatal outcome in blood type incompatible pregnancy treated with tacrolimus (Example 1); type: in vivo, human
From the text: as §1
Two years later, […] hoped to have a second child but suffered from infecundity and was treated for sterility by in vitro fertilization; however, since the treatment was unsuccessful after five embryo transplantations, a close examination of the immune system was conducted. At that time, a marked increase (24.9) in the Th1/Th2 (Th1 32.4, Th2 1.3) ratio was recognized, the illness was judged as infecundity considered to be caused by an abnormality in the immune system, and a tacrolimus treatment was selected.
as §2, §3

[4] = Concentration of tacrolimus in the cord blood by chemiluminescence immunoassay (ECLIA); type: in vivo, human; conditions: at delivery, mother on 5 mg/day oral
[5] = system: patient having a medical history of pregnancy-induced hypertensive nephropathy and HELLP syndrome; assay: Prevention or delay of onset of pregnancy-induced hypertension syndrome, HELLP syndrome and eclampsia (Example 4, Table 1); type: in vivo, human
From the text: A patient is a person having a medical history of pregnancy-induced hypertensive nephropathy and HELLP syndrome. […] After the delivery, pulmonary edema, disseminated intravascular coagulation (DIC), and intraperitoneal bleeding, all of which are severe complications, were recognized, and the patient received treatments such as management using an artificial respirator, supplement of albumin, and blood component transfusion.
This time, in the hematologic examination findings before pregnancy, there were no abnormalities in all of the liver function, kidney function, and coagulation function, and abnormal findings were not observed in the examination items involved in infertility such as antiphospholipid antibody syndrome (anti-CL-IgG antibody, anti-CL-IgM antibody, anti-PS/PT antibody, anti-CL-β2GP1 antibody, LAC, anti-PE-IgG antibody, and anti-PE-IgM antibody), autoimmune diseases (anti-DNA antibody and antinuclear antibody), and coagulation dysfunction.
The circumstances of the first pregnancy and the pregnancy of this time are described in Table 1.
The ratio of Th1 (CD4g^+IFN-g^+)/Th2(CD4^+IL-4^+) in CD4-positive cells is 15.2/2.1 (normal value: less than 10.3), and clear immunological abnormalities were also not observed before pregnancy [Reference Literature 12b]; however, it was assumed that after implantation of a fertilized ovum, immunity of the mother's body would be activated, and immune abnormality between the mother's body and the fetus would suppress placental construction and functions thereof, causing fetal growth restriction and hypertension during pregnancy. Considering this, the patient was treated with 1 mg/day of tacrolimus from week 4 of pregnancy, for the purpose of controlling the immunity between the mother's body and the fetus after confirmation of pregnancy.
In this case, monotherapy was carried out with 1 mg/day of tacrolimus from the early stage of pregnancy, and combined treatment of low dose aspirin (LDA) intended for HDP prevention by bloodstream improvement was not carried out [Reference Literature 13b]. Regarding the pregnancy progress, there was no problem in the second trimester of pregnancy, where the patient developed HELLP syndrome in the previous pregnancy, and pregnancy progressed smoothly to the third trimester of pregnancy; however, the patient rapidly acquired HELLP syndrome similarly to the previous pregnancy, after week 33 of pregnancy.

[6] = system: Th1 and Th2 cells among CD4-positive cells; assay: Analysis of Th1 cells and Th2 cells in patient blood by flow cytometry; type: in vivo, human
Method: Analysis of Th1 Cells and Th2 Cells
For the purpose of evaluating the baseline value of the Th1/Th2 cell ratio, a total of 10 ml of venous blood was collected. Th1 cells and Th2 cells were determined by detecting the production of intracellular interferon (IFN)-γ and IL-4.
Specific staining of lymphocytes was performed by incubating whole blood together with anti-CD4-PC5 or anti-CD8-PC5-conjugated monoclonal antibody (mAbs) (Beckman Coulter, Inc., Fullerton, Calif., USA). Red blood cells (RBCs) were removed by hemolysis (using FACS Lysing solution; Becton, Dickinson and Company, BD 134 Biosciences, Franklin Lake, N.J., USA), and lymphocytes were analyzed using flow cytometry (FACSCalibur; Becton, Dickinson and Company). Activated whole blood samples were surface-stained using anti-CD4-PC5-conjugate mAbs, and then RBC hemolysis and specific intracellular staining using Fast Immune (trademark) IFN-γ-FITC/IL-4-PE (Becton, Dickinson and Company) were carried out in sequence according to the manufacturer's instructions for use. Th1 cells were defined as CD4^+ lymphocytes accompanied by intracellular IFN-γ but not by intracellular IL-4. Th2 cells were detected as CD4^+ lymphocytes accompanied by intracellular IL-4 but not by intracellular IFN-γ. The ratio of intracellular IFN-γ-positive Th cells with respect to intracellular IL-4-positive Th cells was expressed as the Th1/Th2 cell ratio.

NK cells = assay: NK cell activity during pregnancy (Example 4); type: in vivo, human; conditions: Example 4 patient during pregnancy, tacrolimus 1 mg/day; normal value 18% to 40%; FIG. 8
[7] = system: patients with five consecutive incidences of RIF (repeated implantation failure); conditions: treated from two days before embryo transplantation to day of pregnancy test; daily dose by Th1/Th2 cell ratio; 16/25 versus 0% (0/17) untreated; cited from earlier work
[8] = pregnancy of this time, tacrolimus 1 mg/day, after parturition
[9] = pregnancy of this time, tacrolimus 1 mg/day, before parturition
[10] = tacrolimus 1 mg/day, after parturition
[11] = tacrolimus 1 mg/day, before parturition

CC(=O)Oc1ccccc1C(=O)O [aspirin]
Outcome of earlier treatment [1]: not successful

C[C@]12C=CC(=O)C=C1CC[C@@H]1[C@@H]2[C@@H](O)C[C@@]2(C)[C@H]1CC[C@]2(O)C(=O)CO [prednisolone]
Outcome of earlier treatment [1]: not successful

C=CCC1/C=C(\C)CC(C)CC(OC)C2OC(O)(C(=O)C(=O)N3CCCCC3C(=O)OC(/C(C)=C/C3CCC(O)C(OC)C3)C(C)C(O)CC1=O)C(C)CC2OC (stereo not drawn) [tacrolimus, 17-Allyl-1,14-dihydroxy-12-[2-(4-hydroxy-3-methoxycyclohexyl)-1-methylvinyl]-23,25-dimethoxy-13,19,21,27-tetramethyl-11,28-dioxa-4-azatricyclo[22.3.1.04,9]octacos-18-ene-2,3,10,16-tetraone]
Anti-D antibody titer in the cord blood ([2]; cord blood at delivery): double | Anti-D antibody titer ([2]; immediately after the establishment of pregnancy): 4 fold | Anti-D antibody titer ([2]; week 24 of pregnancy): 16 fold | Anti-D antibody titer ([2]; week 26 of pregnancy): 32 fold | Body weight of child at birth ([3]; Example 1, tacrolimus 4 then 5 mg/day): 2834 g | Body weight of the fetus in the weeks of pregnancy ([3]; FIG. 7, estimated by fetal ultrasonography): smoothly increased | Malformations of the child ([3]; child exposed in utero to tacrolimus 4 to 5 mg/day): no external malformations or visceral malformations | Fetal anemia (blood flow velocity in the middle cerebral artery) ([3]; fetal ultrasonography during pregnancy, tacrolimus 4 then 5 mg/day): corresponded to the number of weeks; also recorded: without observing any fetal anemia; also recorded: fetal anemia was not developed during the entire course of pregnancy | Establishment of pregnancy by embryo transplantation ([3]; person, infecundity after five unsuccessful embryo transplantations, Th1/Th2 24.9, tacrolimus 4 mg/day oral): Pregnancy was established by a single embryo transplantation | Pregnancy progress in RhD incompatible pregnancy ([3]; without using plasma exchange, data not shown): satisfactory pregnancy progress was obtained | Concentration of tacrolimus in the cord blood [4]: lower than or equal to the detection limit value | Information on fetus: Fetal growth ([5]; pregnancy of this time, tacrolimus 1 mg/day from week 4): −1.9 SD | Information on fetus: Body weight ([5]; pregnancy of this time, tacrolimus 1 mg/day from week 4, at birth): 1490 g | Complications after parturition [5, 8]: None | Symptoms: Edema [5, 8]: Negligible | Symptoms: Hypertension [5, 8]: Temporary | Proteinuria initiated (weeks of pregnancy) [5, 9]: 33 weeks of pregnancy | Symptoms: Edema [5, 9]: Negligible | Delay of onset of HELLP syndrome compared to the previous pregnancy ([5]; single administration of tacrolimus 1 mg/day, previous pregnancy untreated): about 13 weeks | Proteinuria, edema, and hypertension during pregnancy progress ([5]; tacrolimus 1 mg/day monotherapy from week 4 of pregnancy): not observed until week 32 of pregnancy | Blood examination: ALT [5, 10]: 833 U/L | Blood examination: AST [5, 10]: 898 U/L | Blood examination: Cr [5, 10]: 0.59 mg/dL | Blood examination: Hb [5, 10]: 10.5 g/dL | Blood examination: LDH [5, 10]: 1995 U/L | Blood examination: Plt [5, 10]: 2.2 10^4/µL | Blood examination: WBC [5, 10]: 8220 µL⁻¹ | Blood examination: ALT [5, 11]: 71 U/L | Blood examination: AST [5, 11]: 65 U/L | Blood examination: Cr [5, 11]: 1 mg/dL | Blood examination: Hb [5, 11]: 11 g/dL | Blood examination: LDH [5, 11]: 316 U/L | Blood examination: Plt [5, 11]: 10 10^4/µL | Blood examination: WBC [5, 11]: 8280 µL⁻¹ | Th1 ([6]; Example 1 patient, week 28 of pregnancy, on tacrolimus 4 mg/day): tendency of increase again | Ratio (proportions) of Th1 and Th2 cells among CD4-positive cells ([6]; Example 4 patient during pregnancy, tacrolimus 1 mg/day, FIG. 8): continuously decreased | NK cell activity (NK cells): decreased in the second trimester of pregnancy and then conspicuously increased in the examination in week 32 of pregnancy; also recorded: decreased in the second trimester and then conspicuously increased from week 32 of pregnancy | Clinical pregnancy rate [7]: 64.0% | Pregnancy progress ([1]; tacrolimus 2 mg/day continuously during pregnancy, no other treatments): favorable pregnancy progress

heparin
Outcome of earlier treatment [1]: not successful
